One data set relates to barnyard grass. The data set can be described thus: greenhouse post-emergence herbicidal test. It is filed as in vivo, Echinochloa crus-galli. Conditions: application rates of 0.25 or 0.125 kg/ha. The text has this:
(§1) The seeds of the test plants were sown separately for each species. For the post-emergence treatment, the test plants were first grown to a height of 3 to 15 cm, depending on the plant habit, and only then treated with the active compounds which had been suspended or emulsified in water. The test plants were for this purpose either sown directly and grown in the same containers, or they were first grown separately as seedlings and transplanted into the test containers a few days prior to treatment. The application rate for the post-emergence treatment was 0.25, 0.125 or 0.0625 kg of a.s. (active substance)/ha. Depending on the species, the plants were kept at 10-25° C. or […] The test period extended over 2 to 4 weeks. During this time, the plants were tended, and their response to the individual treatments was evaluated. The evaluation was carried out using a scale from 0 to 100. 100 means no emergence of the plants, or complete destruction of at least the aerial parts and 0 means no damage, or normal course of growth. The plants used in the greenhouse experiments were of the following species: [table]

A further data set concerns green foxtail. The data set can be described thus: greenhouse post-emergence herbicidal test. It is filed as in vivo, Setaria eiridis. Conditions: application rates of 0.25 or 0.125 kg/ha.
Source text: as §1

Another data set concerns lamb's-quarters. The data set can be described thus: greenhouse post-emergence herbicidal test. It is filed as in vivo, Chenopodium album. Conditions: application rates of 0.25 or 0.125 kg/ha.
Source text: as §1

For another data set, the system named is lady's-thumb. Description: greenhouse post-emergence herbicidal test. It is filed as in vivo, Polygonum persicaria. Conditions: application rates of 0.25 or 0.125 kg/ha.
Source text: as §1

The subject of another data set is black nightshade. Description: greenhouse post-emergence herbicidal test. It is filed as in vivo, Solanum nigrum. Conditions: application rates of 0.25 or 0.125 kg/ha.
Source text: as §1

The melting point is the temperature, or range, at which the solid turns liquid. `COc1c(C(=O)c2ccc(S(C)(=O)=O)c(C3=NOCC3)c2Cl)cnn1C(C)C` [Compound 2.5] displayed a melting point of 185 to 190 °C.
Take `CC(C)C(C(C)C)n1ncc(C(=O)c2ccc(S(C)(=O)=O)c(C3=NOCC3)c2Cl)c1O` [Compound 2.15]: the melting point lay within 200 to 205 °C.
The same measure, in the same setting: as for `CC(C)Oc1c(C(=O)c2ccc(S(C)(=O)=O)c(C3=NOCC3)c2Cl)cnn1C(C)C` [Compound 2.3], the figure is 175 to 180 °C.
`CC(C)n1ncc(C(=O)c2ccc(S(C)(=O)=O)c(C3=NOCC3)c2Cl)c1O` [Compound 2.2] registered a melting point of 210 to 215 °C. Moreover, the “post-emergence herbicidal action against barnyard grass” value in the data set on barnyard grass is on record as “very good post-emergence action”. Further, the “post-emergence herbicidal action against green foxtail” value in the data set with green foxtail was “very good post-emergence action”. In addition, in the data set with lamb's-quarters, the “post-emergence herbicidal action against lamb's-quarters” value was “very good post-emergence action”. Moreover, the “post-emergence herbicidal action against lady's-thumb” value with lady's-thumb is “very good post-emergence action”. The “post-emergence herbicidal action against black nightshade” value in the data set with black nightshade is reported as “very good post-emergence action”.
Take `COc1c(C(=O)c2ccc(S(C)(=O)=O)c(C3=NOCC3)c2Cl)cnn1C(C(C)C)C(C)C` [Compound 2.16]: the melting point is 65 to 70 °C.
The same measure, in the same setting: for `CC(C)Oc1c(C(=O)c2ccc(S(C)(=O)=O)c(C3=NOCC3)c2Cl)cnn1C(C)C(C)C` (stereo not drawn) [Compound 2.10] the value was 125 to 130 °C; for `CC(C)C(C)n1ncc(C(=O)c2ccc(S(C)(=O)=O)c(C3=NOCC3)c2Cl)c1O` (stereo not drawn) [Compound 2.9], 150 to 155 °C; for `COc1c(C(=O)c2cnn(C(C)C)c2O)ccc(S(C)(=O)=O)c1C1=NOCC1` [Compound 2.13], 154 to 156 °C.
Turning to `CCOc1c(C(=O)c2ccc(S(C)(=O)=O)c(C3=NOCC3)c2Cl)cnn1C(C)C` [Compound 2.4], the melting point is 150 to 155 °C.
The same measure, in the same setting: as for `CC(C)(C)n1ncc(C(=O)c2ccc(S(C)(=O)=O)c(C3=NOCC3)c2Cl)c1O` [Compound 2.1, 4-[2-Chloro-3-(4,5-dihydroisoxazol-3-yl)-4-methylsulfonylbenzoyl]-5-hydroxy-1-(1,1-dimethyl-1-ethyl)-1H-pyrazole], the figure is 198 to 200 °C.

The record behind these values is patent publication US6506708B1, “3-(heterocyclyl)-benzoylpyrazole-derivatives” (BASF Aktiengesellschaft, priority 1998, dated 2003).
